# According to publication PMC9313812, “The Pseudo‐Natural Product Rhonin Targets RHOGDI” (Angewandte Chemie (International Ed. in English), 2022):
# Biological target: T1, SMO (Mus musculus, UniProt P56726)
# T1 construct: expressed in transfected cells; host or cells: HEK293T
# Test: SMO binding assay (BODIPY-cyclopamine displacement)
# Assay type: cell-based
# Details: HEK293T cells expressing SMO, 5 nM BODIPY-cyclopamine
# Protocol: Supplementary Figure S2. […] HEK293T cells […]
# ectopically expressing SMO were treated with different concentrations of 7a or Vismodegib and DMSO as controls in the presence of BODIPY-cyclopamine (5 nM) for 5 h. The graph […]
# activated cell sorting analysis. Data are mean values of three independent experiments (n=3) ± […]
# using a three-fold dilution series starting from a concentration of 30 μM. Half-maximal inhibitory concentrations (IC50) were calculated using the Quattro software suite (Quattro Research, Planegg, Germany) or GraphPad Prism 7 (GraphPad, USA).
# The effect of test compounds on the viability of C3H/10T1/2 cells was determined by CellTiter-Glo Luminescence cell viability assay (Promega). Cells were treated as described for the osteogenesis assay prior to addition of the CellTiter-Glo® reagent according to manufacturer’s protocol. Compounds causing at least a 50% reduction in the osteogenesis assay and retaining cell viability of at least 80% were considered as hits. Dose-response analyses were performed for all hit compounds using a three-fold dilution series starting from a concentration of 30 μM. Half-maximal inhibitory concentrations (IC50) were calculated using the Quattro software suite (Quattro Research GmbH).
# GLI-dependent reporter gene assay
# Shh-LIGHT2 cells were seeded (2.5×10^4 per well) in 96-well plates. After incubation for 16 h, medium was replaced by low serum-containing medium (0.5% FCS) supplemented with 1.5 μM purmorphamine and various concentrations of the compounds or DMSO as a control and cells were incubated for 48 h. Firefly and Renilla luciferase activities were determined by means of the Dual-Luciferase® Reporter Assay System (Promega) according to the manufacturer’s protocol and luminescence was measured using the Spark plate reader (Tecan, […]
# HEK293T cells were seeded (1.5×10^4 per well) on poly-D-lysine-coated coverslips placed in a 24-well plate. 24 h later cells were transfected with the SMO-expressing plasmid (pGEN-mSMO) using FuGENE HD (Promega) according to the manufacturer’s protocol. […]
# T1 sequence (P56726 33-793): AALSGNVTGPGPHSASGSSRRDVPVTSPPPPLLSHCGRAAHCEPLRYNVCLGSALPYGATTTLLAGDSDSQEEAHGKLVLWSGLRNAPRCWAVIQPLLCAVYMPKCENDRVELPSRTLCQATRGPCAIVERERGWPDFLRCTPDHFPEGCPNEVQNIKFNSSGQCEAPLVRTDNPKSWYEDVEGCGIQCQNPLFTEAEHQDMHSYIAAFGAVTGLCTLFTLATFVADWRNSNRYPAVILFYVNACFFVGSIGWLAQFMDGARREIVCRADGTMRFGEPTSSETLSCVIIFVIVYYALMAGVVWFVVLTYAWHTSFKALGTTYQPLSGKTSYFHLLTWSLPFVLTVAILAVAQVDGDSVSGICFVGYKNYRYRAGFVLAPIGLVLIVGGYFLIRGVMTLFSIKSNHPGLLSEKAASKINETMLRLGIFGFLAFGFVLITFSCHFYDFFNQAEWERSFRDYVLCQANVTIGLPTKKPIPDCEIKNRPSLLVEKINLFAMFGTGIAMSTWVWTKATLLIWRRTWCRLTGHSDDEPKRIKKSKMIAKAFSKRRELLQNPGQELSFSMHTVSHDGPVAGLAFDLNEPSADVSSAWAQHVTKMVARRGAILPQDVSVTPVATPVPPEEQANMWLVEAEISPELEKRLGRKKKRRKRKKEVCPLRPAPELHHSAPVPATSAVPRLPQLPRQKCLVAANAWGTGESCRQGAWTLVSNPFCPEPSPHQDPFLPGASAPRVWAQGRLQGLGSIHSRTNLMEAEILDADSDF
SMILES,Displacement of BODIPY-cyclopamine from SMO (in words),Displacement of BODIPY-cyclopamine from SMO (in words) (listed as 7 a)
COC(=O)C1(C(CC(=O)c2cccnc2)c2ccccc2)N=C(c2ccc(Br)cc2)C2C(=O)N(C)C(=O)C21 (stereo not drawn) [7l],partial decrease,–
COC(=O)C1(C(CC(=O)c2ccccc2)c2ccccc2)N=C(c2ccc(Br)cc2)C2C(=O)N(C)C(=O)C21 (stereo not drawn) [7a],does not displace,did not displace
